Results as given in patent US6420570B1, “Psoralen compounds” (priority 1993, dated 2002).
Counter-ions that a name gives are not always drawn. Like-named read-outs stand apart in the source and are kept apart here.

Columns and labels:
[1] = system: Salmonella tester strains; test: Ames assay, dark mutagenicity, overall over tester strains; details: base-substitution tester strains TA100 and TA102
Experimental: (§1) In this example the compounds of the present invention are tested for their dark mutagenicity using an Ames assay. The procedures used for the Salmonella mutagenicity test as described in detail by Maron and Ames were followed exactly. Maron, D. M. and B. N. Ames, Mutation Research 113:173 (1983). A brief description for each procedure is given here. The tester strains TA97a, TA98, TA100, TA102, TA1537 and TA1538 were obtained from Dr. Ames. TA97a, TA98, TA1537 and TA1538 are frameshift tester strains. TA100 and TA102 are base-substitution tester strains. Upon receipt each strain was cultured under a variety of conditions to confirm the genotypes specific to the strains.
(§2) The first tests done with the strains were to determine the range of spontaneous reversion for each of the strains. With each mutagenicity experiment the spontaneous reversion of the tester strains to histidine independence was measured and expressed as the number of spontaneous revertants per plate. This served as the background controls.
(§3) For all experiments, the pre-incubation procedure was used. In this procedure one vial of each tester strain was thawed and 20 μL of this culture was added to 6 mL of Oxoid Nutrient Broth #2. This solution was allowed to shake for 10 hours at 37° C. In the pre-incubation procedure, 0.1 mL of this overnight culture was added to each of the required number of sterile test tubes. To half of the tubes 0.5 mL of a 10% S-9 solution containing Aroclor 1254 induced rat liver extract (Molecular Toxicology Inc., Annapolis, MD), and MgCl2, KCl, glucose-6-phosphate, NADP, and sodium phosphate buffer (Sigma, St. Louis. Mo.) were added. To the other half of the tubes 0.5 mL of 0.2M sodium phospate buffer, pH 7.4, was used in place of the S-9 mixture (the -S9 samples) Finally 0.1 mL of the test solution containing either 0.0.1, 0.5, 1, 5, 10, 50, 100, 250, or 500 μg/mL of the test compound was added. The 0.7 mL mixture pre-incubated while shaking for 20 minutes at 37° C. After shaking, 2 mL of molten top agar supplemented with histidine and biotin were added to the 0.7 mL mixture and immediately poured onto a minimal glucose agar plate (volume of base agar was 20 ml.). The top agar was allowed 30 minutes to solidify and then the plates were inverted and incubated for 44 hours at 37° C. After incubation the number of revertant colonies on each plate were counted. […] (“n” represents the number of replicates performed for each data point.)
(§4) Maron and Ames (1983) describe the conflicting views with regard to the statistical treatment of data generated from the test.

[2] = system: TA100
Experimental: as §1, §2, §3, §4

[3] = system: TA1538; test: Ames assay, dark mutagenicity, strain TA1538
Experimental: as §1, §2, §3, §4

[4] = system: R17; test: R17 inactivation at constant concentration, varying doses of UV light; format: cell-based, bacteriophage R17; details: UV doses 1.0 to 3.0 J/cm^2, FIGS. 11-17
Experimental: Compounds of the present invention were also tested at a constant concentration for varying doses of UV light. Three sets of 1.5 mL tubes were prepared containing 0.6 mL aliquots of R17 in DMEM (prepared as described above). The compound tested was added at the desired concentration and the samples were vortexed. The samples were then irradiated at intervals of 1.0 J/cm^2, until 3.0 J/cm^2 was reached. Between each 1.0 J/cm^2 interval, 100 μL was removed from each sample and placed in the first corresponding dilution tube, then five sequential dilutions were performed for each compound tested, at all 3 irradiation doses, as described above in this example.
Then 50 μL of Hfr 3000 bacteria was added to each tube, 3 mL of top agar was added and the tube contents were vortexed. The contents of each tube was poured into its own LB plate and the plates were incubated overnight at 37° C. Plaques were counted by visual inspection the following morning.

[5] = system: cell-free virus (HIV); format: cell-based; details: 1 minute irradiation
Experimental: Pathogen inactivation efficiency of several compounds of the present invention was evaluated by examining the ability of the compounds to inactivate cell-free virus (HIV). Inactivation of cell-free HIV was performed as follows.
As in the R17 assay, small aliquots of the compounds listed in TABLES 8 and 9, below, at the concentrations listed in the table, were added to stock HIV-1 to a total of 0.5 mL. The stock HIV (10^5-10^7 plaque forming units/mL) was in DMEM/15% FBS. […] Controls included HIV-1 stock only, HIV-1 plus UVA only, and HIV-1 plus the highest concentration of each psoralen tested, with no UVA. Post irradiation, all samples were stores frozen at −70° C. until assayed for infectivity by a microtiter plaque assay. Aliquots for measurement of residual HIV infectivity in the samples treated with a compound of the present invention were withdrawn and cultured.
Residual HIV infectivity was assayed using an MT-2 infectivity assay. […] The assay medium was 85% DMEM (with a high glucose concentration) containing 100 μg of streptomycin, 100 U of penicillin, 50 μg of gentamicin, and 1 μg of amphotericin B per mL, 15% FBS and 2 μg of Polybrene (Sigma Chemical Co., St. Louis, Mo.) per mL. Test and control samples from the inactivation procedure were diluted in 50% assay medium and 50% normal human pooled plasma. The samples were serially diluted directly in 96-well plates (Corning Glass Works, corning, N.Y.). The plates were mixed on an oscillatory shaker for 30 seconds and incubated at 37° C. in a 5% CO2 atmosphere for 1 to 18 hours. […] After an additional 1 hour of incubation at 37° C. in 5% CO2, 0.075 mL of assay medium containing 1.6% SeaPlaque agarose (FMC Bioproducts, Rockland, me.) and prewarmed to 38.5° C. was added to each well. The plates were kept at 37° C. for a few minutes until several plates had accumulated and then centrifuged in plate carriers at 600×g for 20 minutes in a centrifuge precooled to 10° C. In the centrifuge, cell monolayers formed prior to gelling of the agarose layer. The plates were incubated for 5 days at 37° C. in 5% CO2 and stained by the addition of 0.05 mL of 50 μg/mL propidium iodide (Sigma Chemical Co.) in phosphate-buffered saline (pH 7.4) to each well. After 24 to 48 hours, the red fluorescence-stained microplaques were visualized by placing the plates on an 8,000 μW/cm^2 304 nm UV light box (Fotodyne, Inc., New Berlin, Wis.). The plaques were counted at a magnification of ×20 to ×25 through a stereomicroscope. “n” represents the number of runs for which the data point is an average.

[6] = system: TA98; test: Ames assay, dark mutagenicity, strain TA98
Experimental: as §1, §2, §3, §4

[7] = system: R17; test: R17 bacteriophage inactivation screen, varying compound concentration; format: cell-based; details: starting titer approx. 7.1 logs
[8] = Table 8, HIV starting titer approximately 5 logs
[9] = Table 9, HIV starting titer approximately 5.4 logs

Which results are given for Cc1oc2c(C)c3oc(=O)cc(C)c3cc2c1CNCCCCN [Compound 6, 4′-(6-Aminohexyl-2-aza)-4,5′,8-trimethylpsoralen Dihydrochloride]?
base-substitution mutagenicity [1]: no base substitution mutagenicity; revertant colonies per plate ([2]; TA100 +S9, 5 μg/plate): 12; revertant colonies per plate ([2]; TA100 +S9, 10 μg/plate): −5; revertant colonies per plate ([2]; TA100 −S9, 5 μg/plate): −32; revertant colonies per plate ([2]; TA100 −S9, 10 μg/plate): 3; revertant colonies per plate ([3]; TA1538 +S9, 5 μg/plate): 0; revertant colonies per plate ([3]; TA1538 +S9, 10 μg/plate): 8; revertant colonies per plate ([3]; TA1538 −S9, 5 μg/plate): −5; R17 inactivation compared with AMT [4]: more efficient at inactivating R17 than was AMT; HIV Log Kill 16 μM [5, 8]: 2.0 log; HIV Log Kill 32 μM [5, 8]: 3.1 log; HIV Log Kill 64 μM [5, 8]: >3.8 log; HIV Log Kill 16 μM [5, 9]: 2.1 log; HIV Log Kill 32 μM [5, 9]: 3.2 log; HIV Log Kill 64 μM [5, 9]: >2.8 log; revertant colonies per plate ([6]; TA98 +S9, 10 μg/plate): −5; revertant colonies per plate ([6]; TA98 +S9, 250 μg/plate): 40; revertant colonies per plate ([6]; TA98 +S9, 500 μg/plate): 52; revertant colonies per plate ([6]; TA98 −S9, 10 μg/plate): 12; revertant colonies per plate ([6]; TA98 −S9, 50 μg/plate): 12; revertant colonies per plate ([6]; TA98 −S9, 100 μg/plate): 22; revertant colonies per plate ([6]; TA98 −S9, 250 μg/plate): 12; revertant colonies per plate ([6]; TA98 −S9, 500 μg/plate): 9; R17 log kill 16 uM ([7]; Table 6, 1 minute irradiation = 1.2 J/cm^2): >6.1 log; R17 log kill 32 uM ([7]; Table 6, 32 uM, 1 minute irradiation = 1.2 J/cm^2): >6.1 log; R17 log kill 64 uM ([7]; Table 6, 64 uM, 1 minute irradiation = 1.2 J/cm^2): >6.1 log; R17 log kill 8 uM ([7]; Table 7, 8 uM, 1 minute irradiation): >6 log; R17 log kill 16 uM ([7]; Table 7, 1 minute irradiation): >6 log
